Laboratory results reported in patent US12552760B2, “Compounds for increasing the nicotinamide adenine dinucleotide in a subject and methods of use thereof” (The Board of Trustees of the University of Illinois, priority 2022, dated 2026).
Like-named read-outs stand apart in the source and are kept apart here.

What was measured:
[1] = tested on: hSOD1^G93A mouse derived astrocytes and motor neurons; details: NR or NMN, 5 mM, 24-72 h; Harlan, B. A. et al. 2019; cited from earlier work
CD1 mice = details: 300 mg/kg 30 minutes post ICH from tail veil for 24 h or 7 days with (300 mg/kg/d); Wei, C. C. et al. 2017; cited from earlier work
APPSwe/PSEN1dE9 mice [2] = details: 100 mg/kg (s.c.) every other day for 28 days; Yao Z. et al. 2017; cited from earlier work
Wistar rats [3] = details: 500 mg/kg/d (i.p.) 10 days; hippocampal slices treated with 10 μM oAβ1-42 for 6 h +/− 1 mM NMN; Wang, X. et al. 2016; cited from earlier work
APPSwe/PSEN1dE9 mice [4] = details: 100 mg/kg every other day for 28 days; Long, A. N. et al. 2015; cited from earlier work
CL2355 worms = details: 5 mM, 2 nematode generations; Fang, E. F. et al. 2019; cited from earlier work
Sprague-Dawley rats [5] = details: 100 mg/kg (i.p.) every other day for 3 months; Chandrasekaran, K. et al. 2020; cited from earlier work
HT22 = details: 0.1 mM & 1.0 mM, 24 h; Koh, P. 2013; cited from earlier work
Sprague-Dawley rats [6] = details: 500 mg/kg (i.p.) 2 h after MCAO for 22 hrs; Koh, P. 2013; cited from earlier work
3xTgAD mice = details: 40 mg/kg/d (p.o.) 8 months; Liu, D. et al. 2013; cited from earlier work
cultured primary neurons = details: 2-4 mM, 6 h; Liu, D. et al. 2013; cited from earlier work
Wistar rats [7] = details: 100, 300, 500 mg/kg (i.p.) 8 days; Sidhu, A. et al. 2018; cited from earlier work
[8] = tested on: Brown Norway rats and C57BL/6 mice; details: 200-400 mg/kg/d (p.o., rats), 500 mg/kg/d (p.o., mice), various treatment times; Tribble J. R. et al. 2021; cited from earlier work
C57BL/6 mice = details: 125, 250, 500 mg/kg (i.p.) 1 day (acute), 5 days (sub-acute); Anderson, D. W. et al. 2008; cited from earlier work
[9] = tested on: APPSwe/PSEN1dE9 N2A cells; details: 10 mM, 72 h; Long, A. N. et al. 2015; cited from earlier work
NAMPT [10] = target: T1, NAMPT (Homo sapiens, UniProt P43490); assay: NAMPT coupled enzyme activity assay (HTS coupled three-enzyme assay); type: biochemical; details: dose-response (FIG. 1B)
T1 construct: His6 (C); made in house
T1 sequence (P43490 whole entry): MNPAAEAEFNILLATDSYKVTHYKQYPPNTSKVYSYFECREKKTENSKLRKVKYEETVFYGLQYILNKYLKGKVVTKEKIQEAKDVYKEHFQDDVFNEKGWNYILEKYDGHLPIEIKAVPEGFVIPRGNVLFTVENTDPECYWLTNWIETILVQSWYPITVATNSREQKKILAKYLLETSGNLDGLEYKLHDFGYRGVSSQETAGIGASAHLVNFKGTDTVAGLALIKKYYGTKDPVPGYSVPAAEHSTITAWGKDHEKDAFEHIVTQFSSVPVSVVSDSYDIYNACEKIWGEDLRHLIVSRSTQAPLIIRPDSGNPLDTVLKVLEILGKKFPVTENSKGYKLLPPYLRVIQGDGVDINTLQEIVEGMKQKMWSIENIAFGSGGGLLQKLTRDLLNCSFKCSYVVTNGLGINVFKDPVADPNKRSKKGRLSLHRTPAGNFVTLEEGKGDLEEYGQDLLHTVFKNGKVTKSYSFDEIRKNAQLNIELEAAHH
Source text: NAMPT coupled enzyme activity assay. The NAMPT enzyme assay is based on conditions from Burgos and Schramm and adapted to include a cycling reaction to quantitate NAD^+ production colorimetrically^1. The assay follows the NAMPT-catalyzed production of NMN from substrates NAM and PRPP by coupling NMN formation to the NMNAT reaction, which produces NAD^+ from NMN and ATP. The NAD^+ is then cycled by alcohol dehydrogenase (ADH) and diaphorase to continuously produce WST-1 formazan, which can be detected at 450 nm. Assays are performed at 25° C. in clear 384-well plates, with a final assay volume of 30 μL, and contain the following: 50 mM HEPES, pH 7.5, 5 mM MgCl2, 50 mM NaCl, 0.01% Triton-X 100, 2.5 mM ATP, 40 μM PRPP, 1-500 μM NAM, 1.5 μL WST-1 (Roche Cell Proliferation Reagent), 1 U/mL ADH, 0.083 U/mL diaphorase, 1.5% ethanol, 1% DMSO, 30 nM NAMPT, and 7.4 nM purified human NMNAT1. N-terminal His6-NMNAT1 and C-terminal His6-NAMPT were overexpressed and purified by metal chelate affinity chromatography. Following assay assembly, well signals were measured continuously at 450 nm on a Tecan Infinite M200 plate reader for 1 h with intermittent shaking. Slopes of the linear portions of the reaction progress curves were recorded and corrected for background by subtracting the average slope of control wells containing NAMPT inhibitor FK866.
A high-throughput screen (HTS) of 22,000 compounds was performed to identify those that augment NAMPT enzymatic activity^38. Screening used a coupled three-enzyme assay to detect conversion of NAM to NAD^+, as previously described by our group^37. […] We also established assays in which to assess the ability of our compounds to mitigate neuronal oxidative stress.

THP-1 human monocytes = assay: Measurement of cellular NAD^+ levels in THP-1 cell cultures (NAD/NADH-Glo); type: cell-based; details: dose response study, 30 μM (FIG. 1A)
Description: Measurement of cellular NAD^+ levels in THP-1 cell cultures. Using FK-866 and NMN as negative and positive controls, respectively, we explored a number of cell lines to select a highly reproducible model system with good dynamic range. We optimized a commercial NAD-glo assay in the THP-1 human leukemic monocyte cell line in 96-well plates, measuring NAD^+ after incubation with test compounds for 24 hours. […] All cells were grown at 37° C., under 5% CO2 in a humidified incubator. Low passage THP-1 cells (37,500 cells/well) were seeded in 96-well plates and incubated at 37° C. and 5% CO2 for 1½ h prior to a 24 h treatment. All compounds were dissolved in DMSO, and final DMSO concentrations never exceeded 1%. The NAD^+ levels in the cells are measured using the NAD^+/NADH-Glo™ assay (Promega). The assays were performed in triplicate for each concentration and the IC50 values were determined from non-linear regression analysis of the dose-response curve generated in GraphPad Prism 9.

[11] = tested on: HT-22 mouse hippocampal cell line; assay: TNFα-induced ROS in HT-22 cells (MitoSOX); type: cell-based; details: screened against 1 μg/mL TNFα (FIG. 2A)
Description: Cell Culture and Drug Treatments. HT22 mouse hippocampal neuronal cells (a gift from the Salk Institute) were grown in Dulbecco's modified Eagle's medium (DMEM) containing 10% FBS and 1× Antibiotic-Antimycotic (ABAM). Cells were maintained in a humidified 5% CO2 atmosphere incubator at 37° C., and were passaged when 60-80% confluent (1-2 days) by removing media, rinsing with phosphate buffered saline (PBS), and enzymatically detaching with trypsin solution. New culture dishes were seeded with ¼ to ½ the cells from the previous dish.
All assays were performed using cells with passage number 12-50. The inner 60 wells of black-walled (Corning®3603/3604) 96-well plates were treated with poly D-lysine (30 μL/well) making sure to cover the entire well surface for 15-30 seconds and then washed thoroughly with sterile water (3×−200 μL/well). TNFα stock solutions (10 μg/mL, PBS (0.1% BSA)) were made, aliquoted, and stored at −80° C. Glutamate stock solutions were made fresh immediately before assay. All compound stock solutions (10 mM, DMSO) were made and stored at −20° C.
Cells were plated at a seeding density of 3,000-5,000 cells/well and allowed to incubate overnight. The next day (18-24 hours later) cells were pretreated with N-PAMs, carefully ensuring equivalent vehicle (DMSO/PBS) composition in each well. After 18-24 hours, stressors (glutamate or TNFα) were treated. Live cell count, ROS level, and total cell count were then assessed after another 18-24 hours.
ROS Detection. ROS levels were quantified using MitoSOX Red Mitochondrial Superoxide Indicator (Invitrogen). At treatment endpoint, the cell culture media was removed and replaced with phosphate buffered saline (PBS) containing 1 μM calcein-AM, 5 μM MitoSOX, and 10 μg/mL Hoechst dyes. Cells were incubated for 30-45 minutes and then dye-containing PBS was dumped and replaced with 100 μL/well fresh PBS. The plate was immediately analyzed in the Celigo Imaging Cytometer using the Live-Dead-Total protocol, where MitoSOX was used in place of propidium iodide. The cell counts and fluorescence intensities for living (calcein), MitoSOX-stained, and total (Hoechst) were acquired. MitoSOX average mean fluorescence intensity (“dead” average mean intensity) was used to quantify mitochondrial ROS. All readouts used were transformed into fold-change over vehicle treatment for visualization.
We set out to design assays representing the connection between OS and the multifaceted pathophysiology of aging and ND. We assessed multiple treatments in several cell lines to model OS induced by diverse factors such as neuroinflammatory signaling, neurotransmitter signaling, and direct oxidant species. Assay development highlighted the neuronal HT-22 mouse hippocampal cell line as most robust for these purpose s, and inflammatory cytokine TNFα as being a reliable and disease-relevant method for inducing ROS generation.

NAMPT [12] = target: T1, NAMPT; assay: NP-A3-B2:NAMPT co-crystal structure (X-ray diffraction); details: NP-A3-B2, NAM and NAMPT; 1.3-1.5 Å resolution
Description: X-ray diffraction crystallography. Crystals of NAMPT complexed with NAM and N-PAM were grown by hanging drop vapor diffusion at 16° C. Prior to crystallization, 11 mg/mL NAMPT protein was incubated with 10 mM NAM and 1 mM compound for 30 min on ice. Crystals of the complex were grown by mixing 1-2 μL of NAMPT complex with 2 μL of reservoir solution containing 0.1 M Tris-HCl, pH 8, 0.1 M KCl, and 24-28% PEG 2000 MME or 0.1 M Tris-HCl, pH 8.5, 0.2 M NaCl, 20% glycerol and 13-18% PEG 3350. Crystals grew overnight from the PEG 2000 MME conditions and were used to streak seed drops of NAMPT complex equilibrating against the PEG 3350 conditions.
Data collection and structure refinement. The glycerol present in the crystallization solution was sufficient to cryo-protect crystals, which were flash-cooled in liquid nitrogen. Data were collected on a MAR300 detector at 0.979 Å at the Life Sciences Collaborative Access Team beamline 21-ID-F at the Advanced Photon Source, Argonne National Laboratory. Data indexing, integration, and scaling were performed using XDS, and phases were determined by molecular replacement using Molrep and a NAMPT-NAM co-crystal structure (PDB entry: 2E5D) as search model. Rigid body refinement followed by iterative rounds of restrained refinement and model building were performed with Phenix and Coot.

NC(=O)c1ccc[n+]([C@@H]2O[C@H](COP(=O)([O-])O)[C@@H](O)[C@H]2O)c1 [NMN, nicotinamide mononucleotide]
Nrf2 mediated Antioxidant Response Element activation [1]: Increased Nrf2 | Neuroprotective (CD1 mice): Neuroprotective | acute brain injury (CD1 mice): Protected against | motor function recovery over 7 days (CD1 mice): Enhanced motor | oxidative stress and neuroinflammation (CD1 mice): Reduced | APP processing (APPSwe/PSEN1dE9 mice [2]): Biased APP to α | Aβ aggregation (APPSwe/PSEN1dE9 mice [2]): · Decreased Aβ | cognitive impairments (APPSwe/PSEN1dE9 mice [2]): Prevented | neuroinflammation (APPSwe/PSEN1dE9 mice [2]): Decreased | synaptic loss (APPSwe/PSEN1dE9 mice [2]): Prevented | LTP (Wistar rats [3]): Improved LTP | NAD^+ and ATP (Wistar rats [3]): · Restored NAD^+ | Neuroprotection (Wistar rats [3]): Neuroprotection | oxidative stress (Wistar rats [3]): Attenuated | spatial learning and memory (Wistar rats [3]): Improved spatial | APP levels (APPSwe/PSEN1dE9 mice [4]): Decreased APP | mitochondrial deficits (APPSwe/PSEN1dE9 mice [4]): Reversed | cognitive decline and memory impairment (CL2355 worms): Ameliorated | Neuroprotective (Sprague-Dawley rats [5]): Neuroprotective | brain NAD^+, metabolites, and neurotransmitters (Sprague-Dawley rats [5]): Normalized brain | hippocampal CA1 volume (Sprague-Dawley rats [5]): Preserved | memory (Sprague-Dawley rats [5]): Improved memory | mitochondrial function (Sprague-Dawley rats [5]): Improved

NC(=O)c1cccnc1 [NAM, nicotinamide]
Neuroprotection (HT22): Neuroprotection | hippocalcin (crucial neuronal protein) depletion (HT22): Prevented | Decreased infarct volume (Sprague-Dawley rats [6]): volume by 60% | hippocalcin depletion (Sprague-Dawley rats [6]): Prevented | Aβ and p-Tau (3xTgAD mice): Decreased Aβ | cognitive decline (3xTgAD mice): Ameliorated | Neuroprotection (cultured primary neurons): Neuroprotection | Neuroprotection (Wistar rats [7]): Neuroprotection | motor function (Wistar rats [7]): Improved motor | oxidative stress (Wistar rats [7]): Prevented | Retinal ganglion neuroprotection [8]: neuroprotection | metabolic disruption [8]: Prevented | mitochondrial function [8]: Improved | dopamine concentration in both paradigms (C57BL/6 mice): Recovered

NC(=O)c1ccc[n+]([C@@H]2O[C@H](COP(=O)([O-])OP(=O)(O)OC[C@H]3O[C@@H](n4cnc5c(N)ncnc54)[C@H](O)[C@@H]3O)[C@@H](O)[C@H]2O)c1 [NAD^+, Nicotinamide adenine dinucleotide]
mitochondrial deficits [9]: Reversed

COc1ccc(CN(CCC2(C(C)C)CCOC(C)(C)C2)C(=O)c2ccco2)cc1 (centres unmarked) [NP-A3-B2, N-[(4-Methoxyphenyl)methyl]-N-[2-[tetrahydro-2,2-dimethyl-4-(1-methylethyl)-2H-pyran-4-yl]ethyl]-2-furancarboxamide]
EC50 (NAMPT [10]; NAMPT activation): 4.05 µM | Amax (NAMPT [10]): 1.85 fold | NAD^+ fold over control (THP-1 human monocytes): 1.18 fold | increase in NAD^+ over control (THP-1 human monocytes): 18% | effect on ROS levels across tested concentrations [11]: little effect until 40 μM | binding mode in co-crystal structure (NAMPT [12]): allosteric binding of the hit to the NAMPT rear channel
